What was measured:
AcypiAKHR = assay: Aequorin-based bioluminescent calcium assay in CHO-WTA11 cells; assay type: cell-based, Acyrthosiphon pisum; conditions: peptide at micromolar concentrations; relative to cognate AKH
Excerpt: (§1) We expressed the different insect AKH receptors in Chinese hamster ovary (CHO) WTA11 cells, stably expressing apo-aequorin, a zeocin resistance gene and the promiscuous Gα16 subunit coupling to the phospholipase C and Ca^2+ signaling cascade (Euroscreen, Brussels, Belgium). The AKH from each species elicited a clear dose-dependent response in the bioluminescent calcium assay of its conspecific receptor, with an EC50 value in the low nanomolar range (Figure 3).
(§2) We analyzed the activity of the different AKH receptors using CHO-WTA11 cells, which contain a promiscuous Gα16 subunit that will induce an intracellular Ca^2+-increase upon receptor binding independent of the receptors’ natural signaling cascade (see also [48]). […]
(§3) For transfection of the cells (T75 flasks at 60–80% confluency), we dissolved 5 µg pcDNA3.1-receptor or empty pcDNA3.1 vector in 2.5 mL Opti-MEM® (Gibco) supplemented with 12.5 µL Plus™ Reagent of the Lipofectamine LTX Kit (Invitrogen) in 5 mL polystyrene round-bottom tubes. […] We monitored ligand-induced changes in intracellular Ca^2+ in the cells as described below. […]

TricaAKHR = assay: as above; assay type: cell-based, Tribolium castaneum; conditions: peptide at micromolar concentrations; relative to cognate AKH
Excerpt: as §1, §2, §3

HylabAKHR = assay: as above; assay type: cell-based, Hylobius abietis; conditions: peptide at micromolar concentrations; relative to cognate AKH
Excerpt: as §1, §2, §3

[1] = tested on: seven different insect AKH receptors; assay: Aequorin-based bioluminescent calcium assay in CHO-WTA11 cells, statements for all seven receptors together; assay type: cell-based; conditions: peptide at micromolar concentrations; all analysed AKHRs
Excerpt: as §1, §2, §3

Substance	receptor activation (AcypiAKHR)	receptor activation (TricaAKHR)	receptor activation (HylabAKHR)	AKHR activation [1]
pQ-TFQYSHGWTNamide [Crz, corazonin]	very limited activation	very limited activation	very limited activation	not able to activate any of the AKHRs that were analyzed to same extent as the endogenous AKHs
pQVTF--SRDWNAamide [ACP]				only very low levels of AKHR activation

From publication PMC5855764, “Analysis of Peptide Ligand Specificity of Different Insect Adipokinetic Hormone Receptors” (International Journal of Molecular Sciences, 2018)
